Assay results published in patent US20240317780A1, “RADIOPHARMACEUTICAL SOMATOSTATIN RECEPTOR LIGANDS AND PRECURSORS THEREOF” (Technische Universität München, priority 2021, published 2024).
Where a SMILES comes first, the peptide text is derived from it. Bridges are numbered along the chain shown (N, C = ends). [ ]: non-standard residue; d: D form. The star is where a group is joined. ξ: configuration not given here. Benzoyl(4-SiFtBu2) = CC(C)(C)[Si](F)(c1ccc(C(=O)*)cc1)C(C)(C)C; DO3AM = NC(=O)CN1CCN(CC(N)=O)CCN(CC(=O)*)CCN(CC(N)=O)CC1; ξW = NC(Cc1c[nH]c2ccccc12)C(=O)O; dDap = NC[C@@H](N)C(=O)O; ξF = NC(Cc1ccccc1)C(=O)O; ξD = NC(CC(=O)O)C(=O)O; ξDap = NCC(N)C(=O)O; ξC = NC(CS)C(=O)O

Assays:
[1] = target: HSA (Homo sapiens, UniProt P02768); assay: HSA binding by RIAC method (gel filtration, apparent molecular weight); format: in vitro ADME; conditions: HSA binding as apparent molecular weight, 700 μM HSA in PBS mobile phase
Chain of HSA (P02768 25-609): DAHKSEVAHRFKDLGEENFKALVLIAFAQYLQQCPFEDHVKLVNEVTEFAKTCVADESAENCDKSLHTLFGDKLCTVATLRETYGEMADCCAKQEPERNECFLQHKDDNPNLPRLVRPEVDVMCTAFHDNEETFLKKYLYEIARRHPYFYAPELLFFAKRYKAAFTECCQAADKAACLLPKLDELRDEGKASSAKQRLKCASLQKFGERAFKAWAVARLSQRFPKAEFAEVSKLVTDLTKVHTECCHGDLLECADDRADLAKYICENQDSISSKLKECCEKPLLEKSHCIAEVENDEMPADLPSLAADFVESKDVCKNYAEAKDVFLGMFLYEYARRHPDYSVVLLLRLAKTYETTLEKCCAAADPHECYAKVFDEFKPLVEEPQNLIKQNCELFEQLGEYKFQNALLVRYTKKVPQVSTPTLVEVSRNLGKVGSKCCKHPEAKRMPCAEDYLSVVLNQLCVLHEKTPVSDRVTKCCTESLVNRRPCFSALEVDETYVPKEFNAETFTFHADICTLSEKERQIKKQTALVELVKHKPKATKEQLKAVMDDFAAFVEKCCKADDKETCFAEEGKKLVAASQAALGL
Experimental: A gel filtration column Superdex 75 Increase 10/300 GL (GE Healthcare, Uppsala, Sweden) was beforehand calibrated following the producer's recommendations with a commercially available gel filtration calibration kit (GE Healthcare, Buckinghamshire, UK) comprising conalbumin (MW: 75 kDa), ovalbumin (44 kDa), carbonic anhydrase (29 kDa), ribonuclease A (13.7 kDa) and aprotinin (6.5 kDa) as reference proteins of known molecular weight. AMSEC experiments were conducted using a constant flow rate of 0.8 mL/min at rt. A solution of HSA in PBS at physiological concentration (700 μM) was used as the mobile phase. SST2 ligands were labelled as described with molar activities of 10-20 GBq/μmol. Probes of 1.0 MBq of the radioligand were injected directly from the labelling solution. HSA binding was expressed as an apparent molecular weight MW calculated from the retention time of the radioligand using the determined calibration curve.
For evaluation, experimentally determined retention times tR are first converted into elution volumes Ve by multiplying with the flow rate and thereafter converted into partition coefficients Kav following the equation
where V0 is the column void volume (8.027 mL) and Vc is the geometric column volume (24 mL). Using the equation given by the trend line plot of the column calibration
the apparent molecular weight MW is calculated as […]

[2] = Octanol-water distribution coefficient (logD pH 7.4) of the labeled tracer; format: physicochemical; conditions: n-octanol/PBS pH 7.4, room temperature
Experimental: Approximately 1 MBq of the labeled tracer was dissolved in 1 mL of a 1:1 mixture (by volumes) of phosphate buffered saline (PBS, pH 7.4) and n-octanol in an Eppendorf tube. After vigorous mixing of the suspension for 3 minutes at room temperature, the vial was centrifuged at 15000 g for 5 minutes (Biofuge 15, Heraus Sepatech, Osterode, Germany) and 100 μL aliquots of both layers were measured in a gamma counter. The experiment was repeated at least six times.

[3] = target: T1, SST2 (Homo sapiens, UniProt P30874); assay: Determination of IC50: competitive binding against [125I]TOC on SST2-transfected CHO cells; conditions: [125I]TOC reference radioligand, 60 min room temperature
T1 construct: expressed in transfected cells; host or cells: CHO (Chinese hamster ovary) cells
T1 sequence (P30874 whole entry, species assumed): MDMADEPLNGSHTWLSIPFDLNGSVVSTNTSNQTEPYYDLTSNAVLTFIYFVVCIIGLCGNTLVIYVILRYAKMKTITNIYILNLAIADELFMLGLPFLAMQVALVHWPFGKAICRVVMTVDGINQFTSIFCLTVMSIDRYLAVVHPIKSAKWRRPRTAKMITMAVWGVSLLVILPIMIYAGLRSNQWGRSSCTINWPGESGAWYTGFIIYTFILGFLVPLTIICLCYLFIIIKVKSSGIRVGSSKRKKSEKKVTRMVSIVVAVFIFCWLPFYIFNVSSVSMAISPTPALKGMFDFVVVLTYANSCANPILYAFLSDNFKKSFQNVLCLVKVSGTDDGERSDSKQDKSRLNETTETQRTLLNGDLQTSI

C[C@@H](O)[C@H](NC(=O)C1CSSCC(NC(=O)C(Cc2ccccc2)NC(=O)CNC(=O)CNC(=O)CNC(=O)C(CC(=O)O)NC(=O)[C@@H](CC(=O)O)NC(=O)C(CNC(=O)CN2CCN(CC(=O)O)CCN(CC(=O)O)CCN(CC(=O)O)CC2)NC(=O)[C@@H](CN)NC(=O)CNC(=O)C[N+](C)(C)Cc2ccc([Si](F)(C(C)(C)C)C(C)(C)C)cc2)C(=O)N[C@@H](Cc2ccc(O)cc2)C(=O)NC(Cc2c[nH]c3ccccc23)C(=O)N[C@@H](CCCCN)C(=O)N[C@@H]([C@@H](C)O)C(=O)N1)C(=O)O (stereo partly shown) [[Lu]52]
HSA [1]: 8.47 kDa | LogDpH=7.4 [2]: −1.88 ± 0.05

C[C@@H](O)[C@H](NC(=O)C1CSSCC(NC(=O)C(Cc2ccccc2)NC(=O)COCCOCCNC(=O)C(CC(=O)O)NC(=O)[C@@H](CC(=O)O)NC(=O)C(CNC(=O)CN2CCN(CC(=O)O)CCN(CC(=O)O)CCN(CC(=O)O)CC2)NC(=O)[C@@H](CN)NC(=O)c2ccc([Si](F)(C(C)(C)C)C(C)(C)C)cc2)C(=O)N[C@@H](Cc2ccc(O)cc2)C(=O)NC(Cc2c[nH]c3ccccc23)C(=O)N[C@@H](CCCCN)C(=O)N[C@@H]([C@@H](C)O)C(=O)N1)C(=O)O (stereo partly shown) (natGa complex, metal not drawn) [[Ga]23]
HSA [1]: 18.59 kDa | LogDpH=7.4 [2]: −1.86 ± 0.06

C[C@@H](O)[C@H](NC(=O)C1CSSCC(NC(=O)C(Cc2ccccc2)NC(=O)CNC(=O)CNC(=O)CNC(=O)C(CC(=O)O)NC(=O)[C@@H](CC(=O)O)NC(=O)C(CCCNC(N)=O)NC(=O)[C@@H](CNC(=O)C[N+](C)(C)Cc2ccc([Si](F)(C(C)(C)C)C(C)(C)C)cc2)NC(=O)CN2CCN(CC(=O)O)CCN(CC(=O)O)CCN(CC(=O)O)CC2)C(=O)N[C@@H](Cc2ccc(O)cc2)C(=O)NC(Cc2c[nH]c3ccccc23)C(=O)N[C@@H](CCCCN)C(=O)N[C@@H]([C@@H](C)O)C(=O)N1)C(=O)O (stereo partly shown) [[Ga]46]
HSA [1]: 6.81 kDa | LogDpH=7.4 [2]: −2.22 ± 0.03

C[C@@H](O)[C@H](NC(=O)C1CSSCC(NC(=O)C(Cc2ccccc2)NC(=O)[C@@H](CC(N)=O)NC(=O)C(CC(N)=O)NC(=O)CNC(=O)C(CC(=O)O)NC(=O)[C@@H](CC(=O)O)NC(=O)C(CNC(=O)CN2CCN(CC(=O)O)CCN(CC(=O)O)CCN(CC(=O)O)CC2)NC(=O)C[N+](C)(C)Cc2ccc([Si](F)(C(C)(C)C)C(C)(C)C)cc2)C(=O)N[C@@H](Cc2ccc(O)cc2)C(=O)NC(Cc2c[nH]c3ccccc23)C(=O)N[C@@H](CCCCN)C(=O)N[C@@H]([C@@H](C)O)C(=O)N1)C(=O)O (stereo partly shown) [[Ga]49]
HSA [1]: 7.26 kDa | LogDpH=7.4 [2]: −2.16 ± 0.03

C[C@@H](O)[C@H](NC(=O)C1CSSCC(NC(=O)C(Cc2ccccc2)NC(=O)CNC(=O)CNC(=O)CNC(=O)C(CC(=O)O)NC(=O)[C@@H](CC(=O)O)NC(=O)C(CNC(=O)CN2CCN(CC(=O)O)CCN(CC(=O)O)CCN(CC(=O)O)CC2)NC(=O)[C@@H](CN)NC(=O)CNC(=O)CNC(=O)C[N+](C)(C)Cc2ccc([Si](F)(C(C)(C)C)C(C)(C)C)cc2)C(=O)N[C@@H](Cc2ccc(O)cc2)C(=O)NC(Cc2c[nH]c3ccccc23)C(=O)N[C@@H](CCCCN)C(=O)N[C@@H]([C@@H](C)O)C(=O)N1)C(=O)O (stereo partly shown) [[Lu]53]
HSA [1]: 9.81 kDa | LogDpH=7.4 [2]: −1.74 ± 0.03

C[C@@H](O)[C@H](NC(=O)C1CSSCC(NC(=O)C(Cc2ccccc2)NC(=O)CNC(=O)CNC(=O)CNC(=O)C(CC(=O)O)NC(=O)[C@@H](CC(=O)O)NC(=O)C(CNC(=O)CN2CCN(CC(=O)O)CCN(CC(=O)O)CCN(CC(=O)O)CC2)NC(=O)[C@@H](CN)NC(=O)CNC(=O)C[N+](C)(C)Cc2ccc([Si](F)(C(C)(C)C)C(C)(C)C)cc2)C(=O)N[C@@H](Cc2ccc(O)cc2)C(=O)NC(Cc2c[nH]c3ccccc23)C(=O)N[C@@H](CCCCN)C(=O)N[C@@H]([C@@H](C)O)C(=O)N1)C(=O)O (stereo partly shown) [[Ga]52]
HSA [1]: 7.82 kDa | LogDpH=7.4 [2]: −2.00 ± 0.02

C[C@@H](O)[C@H](NC(=O)C1CSSCC(NC(=O)C(Cc2ccccc2)NC(=O)CNC(=O)CNC(=O)CNC(=O)C(CC(=O)O)NC(=O)[C@@H](CC(=O)O)NC(=O)C(CNC(=O)CN2CCN(CC(=O)O)CCN(CC(=O)O)CCN(CC(=O)O)CC2)NC(=O)C[N+](C)(C)Cc2ccc([Si](F)(C(C)(C)C)C(C)(C)C)cc2)C(=O)N[C@@H](Cc2ccc(O)cc2)C(=O)NC(Cc2c[nH]c3ccccc23)C(=O)N[C@@H](CCCCN)C(=O)N[C@@H]([C@@H](C)O)C(=O)N1)C(=O)O (stereo partly shown) [[Ga]50]
HSA [1]: 8.18 kDa | LogDpH=7.4 [2]: −2.00 ± 0.12

C[C@@H](O)[C@H](NC(=O)C1CSSCC(NC(=O)C(Cc2ccccc2)NC(=O)CNC(=O)CNC(=O)CNC(=O)C(CC(=O)O)NC(=O)[C@@H](CC(=O)O)NC(=O)C(CNC(=O)C[N+](C)(C)Cc2ccc([Si](F)(C(C)(C)C)C(C)(C)C)cc2)NC(=O)CN2CCN(CC(=O)O)CCN(CC(=O)O)CCN(CC(=O)O)CC2)C(=O)N[C@@H](Cc2ccc(O)cc2)C(=O)NC(Cc2c[nH]c3ccccc23)C(=O)N[C@@H](CCCCN)C(=O)N[C@@H]([C@@H](C)O)C(=O)N1)C(=O)O (stereo partly shown) [[Ga]44]
HSA [1]: 6.99 kDa | LogDpH=7.4 [2]: −2.06 ± 0.08

C[C@@H](O)[C@H](NC(=O)C1CSSCC(NC(=O)C(Cc2ccccc2)NC(=O)CNC(=O)CNC(=O)CNC(=O)C(CC(=O)O)NC(=O)[C@@H](CC(=O)O)NC(=O)C(CNC(=O)CN2CCN(CC(=O)O)CCN(CC(=O)O)CCN(CC(=O)O)CC2)NC(=O)[C@@H](CN)NC(=O)C[N+](C)(C)Cc2ccc([Si](F)(C(C)(C)C)C(C)(C)C)cc2)C(=O)N[C@@H](Cc2ccc(O)cc2)C(=O)NC(Cc2c[nH]c3ccccc23)C(=O)N[C@@H](CCCCN)C(=O)N[C@@H]([C@@H](C)O)C(=O)N1)C(=O)O (stereo partly shown) [[Ga]51]
HSA [1]: 8.71 kDa | LogDpH=7.4 [2]: −1.97 ± 0.01

C[C@@H](O)[C@H](NC(=O)C1CSSCC(NC(=O)C(Cc2ccccc2)NC(=O)CNC(=O)CNC(=O)[C@@H](CC(=O)O)NC(=O)C(CC(=O)O)NC(=O)[C@@H](CNC(=O)CN2CCN(CC(=O)O)CCN(CC(=O)O)CCN(CC(=O)O)CC2)NC(=O)c2ccc([Si](F)(C(C)(C)C)C(C)(C)C)cc2)C(=O)N[C@@H](Cc2ccc(O)cc2)C(=O)NC(Cc2c[nH]c3ccccc23)C(=O)N[C@@H](CCCCN)C(=O)N[C@@H]([C@@H](C)O)C(=O)N1)C(=O)O (stereo partly shown) (natGa complex, metal not drawn) [[Ga]9]
IC50 [3]: 63.3 ± 1.75 nM | LogDpH=7.4 [2]: −2.02 ± 0.04

CC(O)C(NC(=O)C1CSSCC(NC(=O)C(Cc2ccccc2)NC(=O)CNC(=O)CNC(=O)CNC(=O)[C@@H](CCCN)NC(=O)[C@@H](CCCN)NC(=O)C(CNC(=O)CN2CCN(CC(=O)O)CCN(CC(=O)O)CCN(CC(=O)O)CC2)NC(=O)C[N+](C)(C)Cc2ccc([Si](F)(C(C)(C)C)C(C)(C)C)cc2)C(=O)N[C@@H](Cc2ccc(O)cc2)C(=O)NC(Cc2c[nH]c3ccccc23)C(=O)N[C@@H](CCCCN)C(=O)N[C@@H]([C@@H](C)O)C(=O)N1)C(=O)O (stereo partly shown) (natGa complex, metal not drawn) [[Ga]55]
IC50 [3]: 4.1 ± 0.54 nM | LogDpH=7.4 [2]: −1.69 ± 0.04

CC(O)C(NC(=O)C1CSSCC(NC(=O)C(Cc2ccccc2)NC(=O)CNC(=O)CNC(=O)CNC(=O)C(CC(N)=O)NC(=O)[C@@H](CC(N)=O)NC(=O)C(CNC(=O)CN2CCN(CC(=O)O)CCN(CC(=O)O)CCN(CC(=O)O)CC2)NC(=O)C[N+](C)(C)Cc2ccc([Si](F)(C(C)(C)C)C(C)(C)C)cc2)C(=O)N[C@@H](Cc2ccc(O)cc2)C(=O)NC(Cc2c[nH]c3ccccc23)C(=O)N[C@@H](CCCCN)C(=O)N[C@@H]([C@@H](C)O)C(=O)N1)C(=O)O (stereo partly shown) (natGa complex, metal not drawn) [[Ga]56]
IC50 [3]: 4 ± 0.34 nM | LogDpH=7.4 [2]: −1.51 ± 0.03

C[C@@H](O)[C@H](NC(=O)C1CSSCC(NC(=O)C(Cc2ccccc2)NC(=O)CNC(=O)CNC(=O)[C@@H](CC(=O)O)NC(=O)C(CC(=O)O)NC(=O)[C@@H](CNC(=O)CN2CCN(CC(N)=O)CCN(CC(N)=O)CCN(CC(N)=O)CC2)NC(=O)C(CN)NC(=O)c2ccc([Si](F)(C(C)(C)C)C(C)(C)C)cc2)C(=O)N[C@@H](Cc2ccc(O)cc2)C(=O)NC(Cc2c[nH]c3ccccc23)C(=O)N[C@@H](CCCCN)C(=O)N[C@@H]([C@@H](C)O)C(=O)N1)C(=O)O (stereo partly shown) [Ligand 36] ({Benzoyl(4-SiFtBu2)}-[ξDap][dDap](DO3AM)[ξD][dD]GG[ξF][ξC]Y[ξW]KT[ξC]T-OH; disulfide 8-13)
IC50 [3]: 7.05 ± 1.61 nM | LogDpH=7.4 ([2]; listed as 36): −1.41 ± 0.07

C[C@@H](O)[C@H](NC(=O)C1CSSCC(NC(=O)C(Cc2ccccc2)NC(=O)CNC(=O)CNC(=O)CNC(=O)C(CC(=O)O)NC(=O)[C@@H](CC(=O)O)NC(=O)C(CCCNC(N)=O)NC(=O)[C@@H](CNC(=O)CN2CCN(CC(=O)O)CCN(CC(=O)O)CCN(CC(=O)O)CC2)NC(=O)C[N+](C)(C)Cc2ccc([Si](F)(C(C)(C)C)C(C)(C)C)cc2)C(=O)N[C@@H](Cc2ccc(O)cc2)C(=O)NC(Cc2c[nH]c3ccccc23)C(=O)N[C@@H](CCCCN)C(=O)N[C@@H]([C@@H](C)O)C(=O)N1)C(=O)O (stereo partly shown) (natGa complex, metal not drawn) [[Ga]58]
IC50 [3]: 4.41 ± 0.81 nM | LogDpH=7.4 [2]: −2.31 ± 0.04
